Structures can show the parent of a compound that is named as a salt.
What was measured:
[1] = Physical properties and stability of the hydrochlorides, stated in words
[2] = Pharmaceutical effect, stated in words
[3] = Hygroscopic test under conditions of 25° C. and 75% RH (Test Example 1); assay type: physicochemical
Procedure: Hygroscopic test of 2-hydrochloride and 3/2-hydrochloride under conditions of 25° C. and 75% RH
A humidity conditioning solution was prepared by using a saturated aqueous solution of sodium chloride, and the solution thus prepared was placed in a humidistat, and temperature-moisture conditions at 25° C. were adjusted. 0.4 g of 2-hydrochloride and 0.2 g of 3/2-hydrochloride were weighed respectively in a weighing bottle to prepare test samples, and the test samples were subjected to hygroscopic test under the above adjusted temperature-moisture conditions to measure a water content and a decomposed material content as a lapse of time and to compare hygroscopicity and stability of the test samples.

[4] = Comparison of biological dynamics in a dog, 10 mg/kg oral administration by capsules; assay type: in vivo; settings: for AUC (0-.infin.) / Cmax: 10 mg/kg oral administration by capsules, 10 mg/kg
Procedure: Further, the compound (1) and its 3/2-hydrochloride (2) were compared with regard to biological dynamics in a dog. […] Result: (10 mg/kg oral administration by capsules)

[5] = 10 mg/kg oral by capsules, ratio to compound (1)

Row | Structure (SMILES) | electrostatic charging of the crystal [1] | hygroscopicity [1] | solubility [1] | pharmaceutical effect [2] | decomposition in a methanol solvent ([1]; methanol solvent) | Water content ([3]; Time 0) [%] | Water content ([3]; Time 1) [%] | Increased decomposed material content ([3]; Time 24) [%] | Water content ([3]; Time 24) [%] | Increased decomposed material content ([3]; Time 48) [%] | Water content ([3]; Time 48) [%] | degraded ([3]; solid, 75% rh, Time 1, read-out: Increased decomposed material content) [%] | Increased decomposed material content ([3]; Time 1) [%] | AUC (0-.infin.) [4] [ng·h/mL] | Cmax [4] [ng/mL] | area under the curve (AUC) of time-concentration in blood (0-.infin.), times more preferable as compared with the compound (1) [4, 5] [times] | maximum concentration in blood (Cmax), times higher as compared with the compound (1) [4, 5] [times]
1 | COc1ccc(CNc2cn[nH]c(=O)c2Cl)cc1OCC(=O)N1CCN(Cc2ccccc2)CC1 [1-hydrochloride] | easily electrostatically charged | high hygroscopicity | poor in solubility | – | – | – | – | – | – | – | – | – | – | – | – | – | –
2 | COc1ccc(CNc2cn[nH]c(=O)c2Cl)cc1OCC(=O)N1CCN(Cc2ccccc2)CC1 [2-hydrochloride, 2-Hydrochloride of 4-chloro-5-[3-(4-benzylpiperazin-1-yl)carbonylmethoxy-4-methoxybenzylamino]-3 (2H) -pyridazinone] | – | highly hygroscopic | – | excellent pharmaceutical effect | rapidly decomposed in a methanol solvent | 0.93 | 4.17 | 1.75 | 5.60 | 11.78 | 9.45 | 0.08 | – | – | – | – | –
3 | COc1ccc(CNc2cn[nH]c(=O)c2Cl)cc1OCC(=O)N1CCN(Cc2ccccc2)CC1 [Compound 2, 3/2-Hydrochloride of 4-chloro-5-[3-(4-benzylpiperazin-1-yl)carbonylmethoxy-4-methoxybenzylamino]-3 (2H) -pyridazinone] | – | – | – | equivalent to that of 2-hydrochloride | – | 2.03 | 2.42 | 0.17 | 2.34 | 0.18 | 2.57 | – | 0.06 | 1998.3 | 1349.0 | 2.3 | 5.4
4 | COc1ccc(CNc2cn[nH]c(=O)c2Cl)cc1OCC(=O)N1CCN(Cc2ccccc2)CC1 [Compound 1, 4-chloro-5-[3-(4-benzylpiperazin-1-yl)carbonylmethoxy-4-methoxybenzylamino]-3(2H)-pyridazinone] | – | – | – | – | – | – | – | – | – | – | – | – | – | 844.3 | 249.7 | – | –
